Measurements taken from patent US20050049299A1, “Selective inhibitors of stat-3 activation and uses thereof” (priority 2003, published 2005).

How the values were obtained:
Type in all cases: cell-based, human
STAT3 phosphorylation = assay: Constitutive STAT3 phosphorylation in U266 cells (Western blot)
Experimental: U266 cells (2×10^6) were treated with the indicated concentrations of curcumin for 1 h, or treated with 50 μM curcumin for the indicated durations and levels of phosphorylated-STAT3 (upper panel) and STAT3 (lower panel) were examined in whole cell extracts by Western Blotting. […] U266 cells (2×10^6) were treated with 50 μM curcumin for indicated durations, and examined for phosphorylated and nonphosphorylated-STAT3, and STAT5. […] U266 cells (2×10^6) were preincubated with curcumin (50 μM) for indicated durations before treatment with IFN-α (10 ng/ml) for additional 30 min and then examined for phosphorylated and nonphosphorylated-STAT1.
U266 cells (2×10^6 cells) were treated with 50 μM curcumin for the indicated durations (left panels) or treated for 1 h and washed with PBS two times to remove curcumin before resuspending in fresh medium. Cells were removed at indicated times and lysed to prepare the whole cell extract (right panels). Thirty micrograms of whole cell extracts were resolved on 7.5% SDS-PAGE, electrotransferred to a nitrocellulose membrane, probed for the phosphorylated-STAT3 (upper panels) and stripped and reprobed for STAT3 (middle panels) and β-actin (lower panels).
Thirty micrograms of whole-cell extract was resolved on 7.5% SDS-PAGE, electrotransferred to a nitrocellulose membrane, probed for the phospho-STAT3 (upper panel), stripped, and reprobed for STAT3 (middle panel) and β-actin (lower panel).
For detection of STAT proteins, whole-cell extracts were prepared by lysing the curcumin-treated cells in lysis buffer (20 mM Tris, pH 7.4, 250 mM NaCl, 2 mM EDTA, pH 8.0, 0.1% Triton-X100, 0.01 mg/ml aprotinin, 0.005 mg/ml leupeptin, 0.4 mM PMSF, and 4 mM NaVO4). Lysates were then spun at 14000 rpm for 10 min to remove insoluble material, and resolved on a 7.5% gel. After electrophoresis, the proteins were electrotransferred to a nitrocellulose membrane, blocked with 5% nonfat milk, and probed with anti-STAT antibodies (1:1000) overnight at 4° C. The blot was washed, exposed to HRP-conjugated secondary antibodies for 1 h, and finally examined by chemiluminescence (ECL, Amersham Pharmacia Biotech. Arlington Heights, Ill.).
Whether curcumin inhibits the constitutive STAT3 phosphorylation in U266 was investigated. U266 cells were incubated either with different concentrations of curcumin for 1 h or with 50 μM curcumin for different times. Curcumin inhibited the constitutively active STAT3 in a dose-(FIG. 1A) and time-(FIG. 1B) dependent manner. Curcumin-induced inhibition could be observed as early as 10 min and with a concentration as low as 10 μM.
Whether curcumin-induced inhibition of STAT3 phosphorylation was reversible was further examined. U266 cells were first treated for 60 min with curcumin, and then the cells were washed twice with PBS to remove curcumin. The cells were then cultured in the fresh medium for various durations, and the levels of phosphorylated STAT3 were measured.
In comparison, treatment of cells with 50 μM curcumin for 60 minutes was sufficient to inhibit STAT3 phosphorylation (see FIGS. 1A and 1B).

MDA 1986LN cells = assay: Proliferation of MDA 1986LN cells (MTT assay)
Experimental: MDA 1986LN cells (2×10^6 cells) were treated with indicated concentrations of AG490 for 8 h and whole extracts prepared. These whole-cell extracts (30 μg) were resolved on 7.5% SDS-PAGE, electrotransferred to a nitrocellulose membrane, probed for p-STAT3 (upper panel), striped and reprobed for STAT3 (middle panel) and β-actin (lower panel). […] The cells were treated with AG490 (100 μM) for the indicated durations and whole cell extracts prepared and analyzed as mentioned earlier. FIG. 15C compares the effect of curcumin and AG490 on proliferation of MDA 1986LN cells by MTT assay.
Further, the proliferation of MDA 1986LN cells when treated with curcumin was compared with AG490 treated cells by performing MTT assay.

U266 cells = assay: IL-6-induced proliferation of U266 cells (thymidine incorporation, MTT); conditions: curcumin 10 μM, 48 h, serum-free; thymidine incorporation and MTT
Experimental: FIGS. 7A-B show& that IL-6 induces proliferation of human multiple myeloma cells and curcumin inhibits it. […] Cell proliferation assays were performed as described below. Results are shown as mean (±s.d.) of percent [^3H] thymidine incorporation or percent proliferation by MTT of triplicate cultures compared to the untreated control.
The antiproliferative effects of curcumin against different multiple myeloma cell lines were determined by the MTT dye uptake method as described earlier (28). Briefly, the cells (5000/well) were incubated in triplicate in a 96-well plate in the presence or absence of indicated test samples in a final volume of 0.1 ml for 24 h at 37° C. […] The OD at 570 nm was measured using a 96-well multiscanner autoreader (Dynatech MR 5000), with the extraction buffer serving as blank. Percent cell viability cell viability was calculated using the following formula: Percent cell viability=(OD of the experiment samples/OD of the control)×100.
The antiproliferative effects of curcumin were also monitored by the thymidine incorporation method. […] Six hours before the completion of experiment, cells were pulse treated with 0.5 μCi [^3H]thymidine, and the uptake of [^3H]thymidine was monitored using a Matrix-9600 β-counter (Packard Instruments, Downers Grove, Ill.). […]
Whether curcumin suppresses the proliferative effects of IL-6 was determined.

## COc1cc(/C=C/C(=O)CC(=O)/C=C/c2ccc(O)c(OC)c2)ccc1O [curcumin, diferuloylmethane]
STAT3 phosphorylation
  dose needed to suppress STAT3 phosphorylation (comparison AG490 vs curcumin): 10 µM
STAT3 phosphorylation; U266 cells, 50 μM curcumin
  earliest time at which inhibition of constitutive STAT3 phosphorylation could be observed: 10 min
  treatment time sufficient to inhibit STAT3 phosphorylation: 60 min
STAT3 phosphorylation; U266 cells, 50 μM, 1 h
  inhibition of constitutive STAT3 phosphorylation: completely inhibited
STAT3 phosphorylation; U266 cells, 1 h
  lowest concentration at which inhibition of constitutive STAT3 phosphorylation could be observed: 10 µM
STAT3 phosphorylation; U266 cells, 60 min treatment then washed
  time to complete reversal of STAT3 phosphorylation inhibition after removal of curcumin: ≤ 24 h
STAT3 phosphorylation; U266 cells, curcumin treatment
  overall expression of STAT3 protein: did not alter the overall expression of STAT3 protein
STAT3 phosphorylation; curcumin
  exposure needed to suppress STAT3 phosphorylation (comparison AG490 vs curcumin): 30 min
MDA 1986LN cells
  inhibition of proliferation of MDA 1986LN cells compared with AG490: more efficiently that AG490
U266 cells
  IL-6-induced proliferation of U266 cells: completely inhibited
